In patent US12661353B2, “SPT5 inhibitors and uses thereof” (Yeda Research and Development Co. Ltd., priority 2020, dated 2026):

Columns and labels:
[1] = system: TNF-α-induced genes / expressed genes; experiment: RNA-seq of 4sU-labeled newly synthesized RNA, with or without TNFα; assay type: cell-based, human; settings: 4sU labeling
Method: Cells treated with DMSO or SPI-21 with or without TNFα were metabolically labeled with […] and then RNA was extracted, biotinylated and the newly synthesized transcripts were isolated with streptavidin magnetic beads and subjected to RNA-Seq. Reads were mapped and differentially expressed genes were determined.
High-throughput sequencing of the total, labeled and Run-On transcripts (RNA-Seq and Gro-seq)—_The RNA-Seq libraries were prepared by the Genomics unit in The Nancy and Stephen Grand Israel National Center for Personalized Medicine (G-INCPM, Weizmann Institute of Science). Samples from 2-hour SPI treatment were prepared using in-house mRNA Seq protocol and polyA capturing and those from 24-hpur and 4sU treatments were prepared using the same protocol w/o PolyA capture (with random hexamers), and sequenced using an Illumina HiSeq 2500 system yielding about 30M SE reads of 61 bases. The GRO-seq RNA samples were reverse transcribed and amplified (15 cycles) using in-house mRNA Seq protocol w/o PolyA capture (with random hexamers) and sequenced in one lane using an Illumina HiSeq High Output (480 million reads, yielding more than 100M SE reads of 47 bases per sample). Each RNA-Seq analysis was carried out using two independent replicates.
RNA-Seq and GRO-seq Bioinformatics analysis—_For the analysis of the 24 h, 4sU and GRO-seq data, we used the RNA-Seq pipeline of UTAP (Kohen et al. 2019) to determine the differentially expressed genes. For the 2-hour data, reads were mapped to the H. sapiens GRCh38 reference genome using STAR (Dobin et al., 2013) and expression levels for each gene were quantified using htseq-count (Anders et al., 2015). Differentially expressed genes were identified using DESeq2 (Love et al., 2014). […] The reads coverage was calculated using bed files containing the desired genomic regions and orientation (awk command) and the bedtools coverage tool (Quinlan et al., 2010).
To validate that the effects of SPIs are at the transcriptional level, cellular RNA was metabolically labeled with 4-thiouridine (4sU) for 2 hours in the presence of DMSO or SPI-21 in the presence or absence of TNFα. Newly synthesized labeled RNA was then purified and subjected to RNA-seq. […] Thus, the observed reduction in TNFα activation by SPI-21 is highly specific and is a consequence of diminished transcription.

wild type (Q7) Htt = experiment: Newly synthesized Htt transcripts, 4sU metabolic labeling, Q7 cells; assay type: cell-based, mouse; settings: 4sU for 2 hours
Method: Metabolic labeling of newly synthesized RNA with 4-thiouridine (4sU)—STHdh Q111 and STHdh Q7 cells (collected from 10 cm dishes) were treated for 30 minutes with DMSO (vehicle control) or the tested SPI compound (e.g., SPJ-21). Following, 4-thiouridine (4sU, 150 μM final concentration) was added for additional 2 hours. The labeling was terminated by removing the 4sU-containing medium and washing the cells 3 times with phosphate-buffered saline (PBS). Total RNA was extracted as described above. 10 μg of RNA were biotinylated using biotin-HPDP (1:5; A8008, APExBIO) for 1.5 hours at room temperature and the biotinylated RNA was purified using chloroform and isopropanol extraction and dissolved in DEPC water. Following, the biotinylated RNA was captured by incubation with Streptavidin-coated magnetic beads (NEB, S1420S) for 30 minutes at room temperature in constant rotation. Bound RNA was eluted with 100 μl of 0.1 M fresh DTT. […]
Huntington's disease (HD) is an inherited genetic disorder caused by expansion trinucleotide CAG repeats (36 and higher) encoding glutamine (Q) in the huntingtin (Htt) gene. […] The two cell lines were treated for 48 hours with the identified SPIs and following the levels of Htt mRNA were determined. […] Moreover, the levels measured from the second exon relative to the first were fairly higher in Q7 compared to Q111 and this small difference was kept all along the gene. […]

His-eIF4E = molecular target: T1, His-eIF4E (Homo sapiens, UniProt P06730); experiment: Binding assay by intrinsic fluorescence of His-eIF4E (negative control); settings: negative control protein
T1 construct: His tag; made in house; host or cells: E. coli; purified by nickel agarose beads
T1 sequence (P06730 whole entry): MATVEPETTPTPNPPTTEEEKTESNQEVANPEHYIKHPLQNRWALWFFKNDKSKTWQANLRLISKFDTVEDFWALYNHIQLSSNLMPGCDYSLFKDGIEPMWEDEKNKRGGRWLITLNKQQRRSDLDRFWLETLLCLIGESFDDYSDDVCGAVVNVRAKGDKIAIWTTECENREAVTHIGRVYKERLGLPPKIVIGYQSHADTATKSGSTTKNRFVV
Method: Binding assay—In order to measure binding of the indicated compound to Spt5 and/or Pol II; Spt5-Spt4 or Rpb1 fused to a histidine (His) tag were expressed in E. coli (SEQ ID Nos: 2-3, 5-6 and 81) and purified on nickel agarose beads as described in Ashkenazi et al. 2016. The proteins were incubated for 10 minutes with increasing concentrations of the indicated compound in a black 384 wells microplate in a total volume of 20 μl. Binding was assessed by measuring the changes in the intrinsic fluorescence (280 nm) using Cytation™ 5 (BioTek).
Direct interaction with either the Spt5 or the Rpb1 CC domain of SPI-21 and SPI-18 was further validated. His-Rpb1 and His-Spt5 (fused to Spt4 to increase its stability) and His-eIF4E, used as a negative control, were each expressed in E. coli and purified by nickel agarose beads. Using the purified proteins, fluorescence intensity measurements were performed in the presence of increasing concentrations of SPI-21 and SPI-18. This method analyzes binding by monitoring the changes in the intrinsic fluorescence of the proteins as a consequence of conformational changes. Spt5, Rpb1, and eIF4E display significant intrinsic fluorescence, as expected from the presence of aromatic residues in all of them. […] These findings are consistent with the direct interaction of the identified SPI compounds with the Spt5 and Rpb1 proteins.

In the case of `COc1ccc(C=CC(=O)c2cc(O)ccc2O)cc1` [SPI-21], the “fraction of TNF-α-induced genes downregulated” value ([1]; TNFα) is reported as 61%, the “number of TNF-α-induced genes (of 467) downregulated” value ([1]; TNFα) is reported as 285 genes and the “fraction of expressed genes downregulated” value ([1]; basal conditions) is reported as 2.2%. For the same compound, the “number of expressed genes (of 13,890) downregulated” value ([1]; basal conditions) was 301 genes, the “levels of newly synthesized Q7 Htt” value (wild type (Q7) Htt) was “not Q7 Htt were diminished” and the “effect on intrinsic fluorescence of eIF4E” value (His-eIF4E) was “no significant effect”.
